Test results: the NIST ThermoML archive (doi:10.1016/j.jct.2015.01.005)
Values joined by “and” are separate entries in the source; they are usually repeats but may differ in a detail not shown here. Equal entries are not always repeated.

Details: for molar entropy: 101.33 kPa, Small (less than 1 g) adiabatic calorimetry; for vapor or sublimation pressure: Calculated from knudsen effusion weight loss; for Triple point temperature: DTA

O[C@@H]1[C@@H](O)[C@@H]2OC[C@@H](O2)[C@H]1O [1,6-anhydro-β-D-glucopyranose]
Details | molar entropy [J/K/mol] | vapor or sublimation pressure
5 K, Crystal 2 | 0.145 | –
10 K, Crystal 2 | 0.302 | –
15 K, Crystal 2 | 1.222 | –
20 K, Crystal 2 | 2.884 | –
25 K, Crystal 2 | 5.162 | –
30 K, Crystal 2 | 7.89 | –
35 K, Crystal 2 | 10.92 | –
40 K, Crystal 2 | 14.15 | –
45 K, Crystal 2 | 17.49 | –
50 K, Crystal 2 | 20.92 | –
60 K, Crystal 2 | 27.86 | –
70 K, Crystal 2 | 34.84 | –
80 K, Crystal 2 | 41.77 | –
90 K, Crystal 2 | 48.63 | –
100 K, Crystal 2 | 55.42 | –
110 K, Crystal 2 | 62.19 | –
120 K, Crystal 2 | 68.89 | –
130 K, Crystal 2 | 75.51 | –
140 K, Crystal 2 | 82.05 | –
150 K, Crystal 2 | 88.52 | –
160 K, Crystal 2 | 94.93 | –
170 K, Crystal 2 | 101.3 | –
180 K, Crystal 2 | 107.6 | –
190 K, Crystal 2 | 113.9 | –
200 K, Crystal 2 | 120.2 | –
210 K, Crystal 2 | 126.4 | –
220 K, Crystal 2 | 132.6 | –
230 K, Crystal 2 | 138.9 | –
240 K, Crystal 2 | 145.1 | –
250 K, Crystal 2 | 151.3 | –
260 K, Crystal 2 | 157.5 | –
270 K, Crystal 2 | 163.7 | –
280 K, Crystal 2 | 170 | –
290 K, Crystal 2 | 176.3 | –
298.15 K, Crystal 2 | 181.4 | –
300 K, Crystal 2 | 182.5 | –
310 K, Crystal 2 | 188.8 | –
320 K, Crystal 2 | 195.1 | –
330 K, Crystal 2 | 201.5 | –
340 K, Crystal 2 | 207.9 | –
350 K, Crystal 2 | 214.4 | –
353.55 K, Crystal 2 | – | 2.63e-05 kPa
353.56 K, Crystal 2 | – | 2.36e-05 kPa
358.59 K, Crystal 2 | – | 4.61e-05 kPa
360 K, Crystal 2 | 220.9 | –
363.6 K, Crystal 2 | – | 8.11e-05 kPa
368.61 K, Crystal 2 | – | 0.00014 kPa
368.62 K, Crystal 2 | – | 0.000141 kPa and 0.00014 kPa
370 K, Crystal 2 | 227.4 | –
373.63 K, Crystal 2 | – | 0.000248 kPa and 0.000254 kPa
373.64 K, Crystal 2 | – | 0.000243 kPa
378.63 K, Crystal 2 | – | 0.00041 kPa
378.64 K, Crystal 2 | – | 0.000426 kPa
378.65 K, Crystal 2 | – | 0.000416 kPa
380 K, Crystal 2 | 234.1 | –
383.65 K, Crystal 2 | – | 0.000688 kPa and 0.000723 kPa
383.66 K, Crystal 2 | – | 0.000727 kPa and 0.000742 kPa
384 K, Crystal 1 | 301.8 | –
384 K, Crystal 2 | 236.7 | –

Details | Triple point temperature [K]
Crystal 1 | 454
Crystal 2 | 384
